US9447122B2, “Arginase inhibitors and methods of use thereof” (AstraZeneca AB, priority 2010, dated 2016)
pKi: −log10 of the molar value. Like-named read-outs stand apart in the source and are kept apart here.

Experiments:
human arginase I = target: T1, human arginase I (Homo sapiens, UniProt P05089); assay: Arginase inhibition, QuantiChrom colorimetric urea assay, IC50 converted to Ki; format: biochemical; settings: Table 3
T1 sequence (P05089 1-322): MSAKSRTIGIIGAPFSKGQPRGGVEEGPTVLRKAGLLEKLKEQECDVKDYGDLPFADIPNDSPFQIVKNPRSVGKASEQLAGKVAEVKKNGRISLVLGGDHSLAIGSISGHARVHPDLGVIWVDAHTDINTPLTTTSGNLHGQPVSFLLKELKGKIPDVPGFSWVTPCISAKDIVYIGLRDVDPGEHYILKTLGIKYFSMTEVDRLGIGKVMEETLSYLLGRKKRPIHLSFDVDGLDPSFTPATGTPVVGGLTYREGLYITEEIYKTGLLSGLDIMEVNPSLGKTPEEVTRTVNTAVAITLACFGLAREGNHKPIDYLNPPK
Description: (§1) For some compounds, their inhibitory potency at pH 7.5 was compared to the inhibitory potency of ABH at pH 7.5.
(§2) Quantitative determination of arginase activity was performed in a 96-well format by a colorimetric method using the QuantiChrom™ Arginase Assay Kit available from BioAssay Systems (Hayward, Calif., Catalog No. DARG-200) according to the manufacturer's protocol. Modifications were made to reagent quantities to suit the assaying of a highly purified sample.
(§3) The intensity of the color was directly proportional to the arginase activity in the sample.
(§4) The rate of urea production was measured in the presence of twelve different concentrations of each potential inhibitor compound. In a typical assay, seven different compounds were tested relative to a control inhibitor (e.g. ABH) against one enzyme (either human ArgI or human ArgII) at a particular pH (either 9.5 or 7.5). The pH of the solution was controlled using an appropriate pH buffering compound at 60 mM concentrations; for example, 60 mM glycine (pH 9.5) or 60 mM HEPES (pH 7.5). The half maximal inhibitory concentration (IC50) was determined by constructing a dose-response curve.

human arginase II = target: T2, human arginase II (Homo sapiens, UniProt P78540); assay: as above; format: biochemical; settings: Table 3
T2 sequence (P78540 23-354): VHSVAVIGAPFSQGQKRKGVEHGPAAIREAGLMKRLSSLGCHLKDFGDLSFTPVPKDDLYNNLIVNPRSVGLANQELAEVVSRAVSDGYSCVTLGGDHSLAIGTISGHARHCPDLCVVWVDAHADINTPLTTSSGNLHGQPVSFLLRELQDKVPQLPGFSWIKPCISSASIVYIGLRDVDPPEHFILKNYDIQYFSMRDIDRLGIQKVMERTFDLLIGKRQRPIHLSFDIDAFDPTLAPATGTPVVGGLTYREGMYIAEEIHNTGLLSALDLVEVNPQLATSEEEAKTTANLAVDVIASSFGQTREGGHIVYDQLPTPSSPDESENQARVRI
Description: as §1, §2, §3, §4

[1] = pH 7.5, read-out: human Arginase I pH 7.5, Ki assigned value
[2] = pH 9.5, read-out: human Arginase I pH 9.5, Ki assigned value
[3] = pH 7.5, read-out: human Arginase II pH 7.5, Ki assigned value
[4] = pH 9.5, read-out: human Arginase II pH 9.5, Ki assigned value

Question: Which results are given for `NC(CCCCB(O)O)(CCCN1CCCC1c1ccc(-c2ccccc2)cc1)C(=O)O` (stereo not shown) [Example 54]?
Answer: pKi (human arginase I; [1]): 7.30 to 7.96; pKi (human arginase I; [2]): 7.30 to 7.96; pKi (human arginase II; [3]): 7.30 to 7.96; pKi (human arginase II; [4]): 7.00 to 7.29

Question: How did the pKi (human arginase I; [1]) turn out when `NC(CCCCB(O)O)(CCCN1CCCC1)C(=O)O` (stereo not shown) [Example 56] was run?
Answer: 7.30 to 7.96

Question: And the pKi (human arginase I; [2])?
Answer: 7.30 to 7.96

Question: And the pKi (human arginase II; [3])?
Answer: 7.00 to 7.29

Question: What about the pKi (human arginase II; [4]) of the same compound?
Answer: 6.60 to 7.00

Question: What does the source list for `NC(CCCCB(O)O)(CCCN1CCC1)C(=O)O` (stereo not shown) [Example 57]?
Answer: pKi (human arginase I; [1]): > 8.00; pKi (human arginase I; [2]): 7.30 to 7.96; pKi (human arginase II; [3]): 7.30 to 7.96; pKi (human arginase II; [4]): 7.00 to 7.29

Question: With `NC(CCCCB(O)O)(CCCN1CC(c2ccccc2)C1)C(=O)O` (stereo not shown) [Example 58] as the compound, how does the pKi (human arginase I; [1]) read?
Answer: > 8.00

Question: What about the pKi (human arginase I; [2]) of the same compound?
Answer: 7.30 to 7.96

Question: What about the pKi (human arginase II; [3]) of the same compound?
Answer: 7.30 to 7.96

Question: What about the pKi (human arginase II; [4]) of the same compound?
Answer: 7.30 to 7.96

Question: With `NC(CCCCB(O)O)(CCCN1CC(NC(=O)Nc2ccc(Cl)c(Cl)c2)C1)C(=O)O` (stereo not shown) [Example 60] as the compound, how does the pKi (human arginase I; [1]) read?
Answer: > 8.00

Question: What about the pKi (human arginase I; [2]) of the same compound?
Answer: > 8.00

Question: And the pKi (human arginase II; [3])?
Answer: > 8.00

Question: And the pKi (human arginase II; [4])?
Answer: 7.30 to 7.96

Question: Which results are given for `NC(CCCCB(O)O)(CCCN1CCOCC1)C(=O)O` (stereo not shown) [Example 64]?
Answer: pKi (human arginase I; [1]): > 8.00; pKi (human arginase I; [2]): 7.30 to 7.96; pKi (human arginase II; [3]): 7.30 to 7.96; pKi (human arginase II; [4]): 7.00 to 7.29

Question: `NC(CCCCB(O)O)(CCCN1CCSCC1)C(=O)O` (stereo not shown) [Example 65] was tested. Which pKi (human arginase I; [1]) did it give?
Answer: 7.30 to 7.96

Question: And the pKi (human arginase I; [2])?
Answer: 7.00 to 7.29

Question: What about the pKi (human arginase II; [3]) of the same compound?
Answer: 7.30 to 7.96

Question: What about the pKi (human arginase II; [4]) of the same compound?
Answer: < 6.40

Question: `NC(CCCCB(O)O)(CCCNCCc1ccccc1)C(=O)O` (stereo not shown) [Example 67] was tested. Which pKi (human arginase I; [1]) did it give?
Answer: > 8.00

Question: What about the pKi (human arginase I; [2]) of the same compound?
Answer: > 8.00

Question: What about the pKi (human arginase II; [3]) of the same compound?
Answer: > 8.00

Question: And the pKi (human arginase II; [4])?
Answer: > 8.00

Question: With `CN(CCCC(N)(CCCCB(O)O)C(=O)O)CCc1ccccc1` (stereo not shown) [Example 68] as the compound, how does the pKi (human arginase I; [1]) read?
Answer: 7.30 to 7.96

Question: What about the pKi (human arginase I; [2]) of the same compound?
Answer: 7.30 to 7.96

Question: What about the pKi (human arginase II; [3]) of the same compound?
Answer: 7.30 to 7.96

Question: And the pKi (human arginase II; [4])?
Answer: 7.30 to 7.96

Question: How did the pKi (human arginase I; [1]) turn out when `NC(CCCCB(O)O)(CCCNC1CCCCC1)C(=O)O` (stereo not shown) [Example 77] was run?
Answer: > 8.00

Question: What about the pKi (human arginase I; [2]) of the same compound?
Answer: > 8.00

Question: And the pKi (human arginase II; [3])?
Answer: > 8.00

Question: And the pKi (human arginase II; [4])?
Answer: 7.30 to 7.96

Question: `CN(CCCC(N)(CCCCB(O)O)C(=O)O)C1CCCCC1` (stereo not shown) [Example 78] was tested. Which pKi (human arginase I; [1]) did it give?
Answer: 7.30 to 7.96

Question: What about the pKi (human arginase I; [2]) of the same compound?
Answer: 7.30 to 7.96

Question: And the pKi (human arginase II; [3])?
Answer: 7.00 to 7.29

Question: And the pKi (human arginase II; [4])?
Answer: 7.30 to 7.96

Question: How did the pKi (human arginase I; [1]) turn out when `COCCN(C)CCCC(N)(CCCCB(O)O)C(=O)O` (stereo not shown) [Example 85] was run?
Answer: 7.30 to 7.96

Question: What about the pKi (human arginase I; [2]) of the same compound?
Answer: 7.30 to 7.96

Question: And the pKi (human arginase II; [3])?
Answer: 7.30 to 7.96

Question: And the pKi (human arginase II; [4])?
Answer: 6.60 to 7.00

Question: How did the pKi (human arginase I; [1]) turn out when `CN(C)CCN(C)CCCC(N)(CCCCB(O)O)C(=O)O` (stereo not shown) [Example 88] was run?
Answer: 7.00 to 7.29

Question: And the pKi (human arginase I; [2])?
Answer: 7.30 to 7.96

Question: What about the pKi (human arginase II; [3]) of the same compound?
Answer: 7.00 to 7.29

Question: And the pKi (human arginase II; [4])?
Answer: 7.00 to 7.29

Question: What does the source list for `CN(C)CCNCCCC(N)(CCCCB(O)O)C(=O)O` (stereo not shown) [Example 89]?
Answer: pKi (human arginase I; [1]): > 8.00; pKi (human arginase I; [2]): > 8.00; pKi (human arginase II; [3]): > 8.00; pKi (human arginase II; [4]): 7.30 to 7.96

Question: With `NC(CCCCB(O)O)(CCCCN1CCNCC1)C(=O)O` (stereo not shown) [Example 93] as the compound, how does the pKi (human arginase I; [1]) read?
Answer: 7.30 to 7.96

Question: And the pKi (human arginase I; [2])?
Answer: 7.30 to 7.96

Question: What about the pKi (human arginase II; [3]) of the same compound?
Answer: < 6.40

Question: What about the pKi (human arginase II; [4]) of the same compound?
Answer: 7.30 to 7.96

Question: `NC(CCCCB(O)O)(CCCCN1CCN(c2ccc(Cl)c(Cl)c2)CC1)C(=O)O` (stereo not shown) [Example 94] was tested. Which pKi (human arginase I; [1]) did it give?
Answer: 7.30 to 7.96

Question: What about the pKi (human arginase I; [2]) of the same compound?
Answer: 7.30 to 7.96

Question: And the pKi (human arginase II; [3])?
Answer: > 8.00

Question: And the pKi (human arginase II; [4])?
Answer: 7.30 to 7.96

Question: What does the source list for `NC(CCCCB(O)O)(CCCCN1CCC(Cc2ccc(F)c(F)c2)CC1)C(=O)O` (stereo not shown) [Example 95]?
Answer: pKi (human arginase I; [1]): 7.00 to 7.29; pKi (human arginase I; [2]): > 8.00; pKi (human arginase II; [3]): 7.30 to 7.96; pKi (human arginase II; [4]): > 8.00

Question: What does the source list for `NC(CCCCB(O)O)(CCCCN1CCc2ccccc2C1)C(=O)O` (stereo not shown) [Example 96]?
Answer: pKi (human arginase I; [1]): 7.30 to 7.96; pKi (human arginase I; [2]): 7.30 to 7.96; pKi (human arginase II; [3]): 7.30 to 7.96; pKi (human arginase II; [4]): 7.30 to 7.96

Question: With `NC(CCCCB(O)O)(CCCN1CCC(C(=O)c2ccc(F)cc2)CC1)C(=O)O` (stereo not shown) [Example 101] as the compound, how does the pKi (human arginase I; [1]) read?
Answer: > 8.00

Question: What about the pKi (human arginase I; [2]) of the same compound?
Answer: 7.30 to 7.96

Question: What about the pKi (human arginase II; [3]) of the same compound?
Answer: > 8.00

Question: And the pKi (human arginase II; [4])?
Answer: 7.30 to 7.96

Question: With `NC(CCCCB(O)O)(CCCN1C2CCC1CC(n1cnc3ccccc31)C2)C(=O)O` (stereo not shown) [Example 102] as the compound, how does the pKi (human arginase I; [1]) read?
Answer: > 8.00

Question: And the pKi (human arginase I; [2])?
Answer: 7.30 to 7.96

Question: And the pKi (human arginase II; [3])?
Answer: > 8.00

Question: And the pKi (human arginase II; [4])?
Answer: 7.30 to 7.96

Question: With `NC(CCCCB(O)O)(CCCN1CCC(Nc2ccccc2)CC1)C(=O)O` (stereo not shown) [Example 103] as the compound, how does the pKi (human arginase I; [1]) read?
Answer: > 8.00

Question: And the pKi (human arginase I; [2])?
Answer: 7.30 to 7.96

Question: And the pKi (human arginase II; [3])?
Answer: > 8.00

Question: And the pKi (human arginase II; [4])?
Answer: 7.30 to 7.96

Question: What does the source list for `CN1CCN(CCCC(N)(CCCCB(O)O)C(=O)O)CC1` (stereo not shown) [Example 106]?
Answer: pKi (human arginase I; [1]): 7.30 to 7.96; pKi (human arginase I; [2]): 7.30 to 7.96; pKi (human arginase II; [3]): 7.30 to 7.96; pKi (human arginase II; [4]): 6.40 to 6.60
